≈ marks a conversion by molar mass, not a printed value. Counter-ions that a name gives are not always drawn. Like-named read-outs stand apart in the source and are kept apart here.
How the values were obtained:
Assay type in all cases: cell-based
A. fumigatus = test: In vitro antifungal activity, IC80 (Method B); details: Aspergillus fumigatus, 1×10^4 cells/ml, 1-2 days, 27° C., 0.2% agar, read-out: Antifungal activity IC80
Description: (§1) The in vitro antifungal activities of the representative compounds of the present invention shown in Table 1 and Table 2 were measured by determining the minimal inhibitory concentrations (MIC: Method A) or 80% growth inhibition concentration (IC80 : Method B) respectively. MIC is defined as the concentration of an antifungal at which growth of fungi is not observed and IC80 is the concentration where cell turbidity measured at OD630 is reduced by 80%.
(§2) Antifungal activities were determined by either method A or B (see below) using microtest plates according NCCLS with minor modifications (Galgiani et at., Antimicrob. Agents Chemother. 33, 731 (1989)).
(§3) (Method B) The medium for yeast was buffered to pH 7.0 with 0.25% K2 HPO4 in Yeast Nitrogen Base (Difco Lab.). For the filamentous fungi, 0.2% of low melting point agar was supplemented to the above medium. Inoculum size was 1×10^4 cells/ml, and incubation was carried out for 1-2 days at 27° C. Fluconazole (Pfizer) was used as reference.

C. neoformans = test: In vitro antifungal activity, IC80 (Method B); details: Cryptococcus neoformans, 1-2 days, 27° C., read-out: Antifungal activity IC80
Description: as §1, §2, §3

Candida albicans [1] = test: In vitro antifungal activity, IC80 (Method B); details: 1-2 days, 27° C., read-out: Antifungal activity IC80
Description: as §1, §2, §3

Aspergillus fumigatus = test: In vitro antifungal activity, MIC (Method A); details: 3 days, 27° C.; for MIC: Aspergillus fumigatus, 72 h; for Antifungal activity MIC: 1×10^5 cells/ml, pH 7.0
Description: (§4) The in vitro antifungal activities of representative compounds of the present invention were measured by determining the minimal inhibitory concentration (MIC), which is the concentration of an antifungal at which no fungal growth can be observed.
(§5) The MICs were determined by the microbroth dilution procedure according to NCCLS with the following minor modifications (Galgiani et al., Antimicrob. Agents Chemother., 33, 731 (1989). The medium was solidified with 0.2% low melting point agarose and buffered to pH 7.0 with 0.25%: K2 HPO4 in Yeast Nitrogen Base (Difco Lab.). Inoculum size was 1×10^5 cells/ml, and incubation was carried out for 3 days at 27° C. The MICs ([…]) are shown in Table 1. The reference compound is compound (IA) in U.S. Pat. No. 4,952,604. The compounds used are identified by reference to the Examples in which they were prepared.
as §1, §2
(§6) (Method A) The medium was solidified with 0.2% low melting point agarose and buffered to pH 7.0 with 0.25% K2 HPO4 in Yeast Nitrogen Base (Difco Lab.). Inoculum size was 1×10^5 cells/ml, and incubation was carried out for 3 days at 27° C. The reference compound is compound (IA) in U.S. Pat. No. 4,952,604.

Candida albicans [2] = test: In vitro antifungal activity, MIC (Method A); details: 3 days, 27° C.; for MIC: Candida albicans, 72 h; for Antifungal activity MIC: 1×10^5 cells/ml, pH 7.0
Description: as §4, §5, §1, §2, §6

Cryptococcus neoformans = test: In vitro antifungal activity, MIC (Method A); details: 3 days, 27° C.; for MIC: Cryptococcus neoformans, 72 h; for Antifungal activity MIC: 1×10^5 cells/ml, pH 7.0
Description: as §4, §5, §1, §2, §6

[3] = pH 7, C. neoformans CY1057, 1×10^4 cells/ml
[4] = pH 7, C. neoformans CY1059, 1×10^4 cells/ml
[5] = pH 7, Candida albicans CY1002, 1×10^4 cells/ml
[6] = pH 7, Candida albicans CY1005, 1×10^4 cells/ml
[7] = pH 7, Candida albicans CY3003, 1×10^4 cells/ml
[8] = pH 7, Aspergillus fumigatus CF1003, 1×10^5 cells/ml
[9] = pH 7, Aspergillus fumigatus CF1004, 1×10^5 cells/ml
[10] = pH 7, Aspergillus fumigatus CF1023, 1×10^5 cells/ml
[11] = pH 7, Candida albicans CY1002, 1×10^5 cells/ml
[12] = pH 7, Candida albicans CY1005, 1×10^5 cells/ml
[13] = pH 7, Candida albicans CY3003, 1×10^5 cells/ml
[14] = pH 7, Cryptococcus neoformans CY1057, 1×10^5 cells/ml
[15] = pH 7, Cryptococcus neoformans CY1059, 1×10^5 cells/ml
[16] = pH 7, Cryptococcus neoformans CY1061, 1×10^5 cells/ml

Molecule	MIC (Aspergillus fumigatus; [8]) [µg/mL]	MIC (Aspergillus fumigatus; [9]) [µg/mL]	MIC (Aspergillus fumigatus; [10]) [µg/mL]	MIC (Candida albicans [2]; [11]) [µg/mL]	MIC (Candida albicans [2]; [12]) [µg/mL]	MIC (Candida albicans [2]; [13]) [µg/mL]	MIC (Cryptococcus neoformans; [14]) [µg/mL]	MIC (Cryptococcus neoformans; [15]) [µg/mL]	MIC (Cryptococcus neoformans; [16]) [µg/mL]	IC80 (A. fumigatus; A. fumigatus CF1003) [µg/mL]	IC80 (A. fumigatus; A. fumigatus CF1004) [µg/mL]	IC80 (C. neoformans; [3]) [µg/mL]	IC80 (C. neoformans; [4]) [µg/mL]	IC80 (Candida albicans [1]; [5]) [µg/mL]	IC80 (Candida albicans [1]; [6]) [µg/mL]	IC80 (Candida albicans [1]; [7]) [µg/mL]	also measured
CO[C@@H]1[C@@H](Cn2cncn2)[C@H](CCc2ccc(OC(F)(F)F)cc2)CCC1(C)C [Example 78, 1-[[(1R,2R,6R)-6-(p-trifluoromethoxyphenethyl)-2-methoxy-3,3-dimethylcyclohexyl]methyl]-1H-1,2,4-triazole]	–	–	–	–	–	–	–	–	–	> 200	> 200	8.4 (≈ 20.4 µM)	21 (≈ 51 µM)	0.03 (≈ 0.0729 µM)	0.093 (≈ 0.226 µM)	0.071 (≈ 0.173 µM)	–
CO[C@@H]1[C@@H](Cn2cncn2)[C@H](CCc2ccc(F)cc2F)CCC1(C)C [Example 80, 1-[[(1R,2R,6S)-6-(2,4-difluorophenethyl)-2-methoxy-3,3-dimethylcyclohexyl]methyl]-1H-1,2,4-triazole]	–	–	–	–	–	–	–	–	–	93 (≈ 256 µM)	40 (≈ 110 µM)	11 (≈ 30.3 µM)	12 (≈ 33 µM)	0.35 (≈ 0.963 µM)	0.65 (≈ 1.79 µM)	0.19 (≈ 0.523 µM)	–
COc1ccc(CC[C@@H]2CCC(C)(C)[C@H](OC)[C@H]2NC(=O)CN)cc1 [Example 55, (1R,2S,3S)-2-[(aminoacetyl)amino]-4-47dimethyl-3-methoxy-1-[2-(4-methoxyphenyl)ethyl]cyclohexane trifluoroacetic acid salt]	–	–	–	–	–	–	–	–	–	> 200	> 200	170	150	49	69	50	–
(2S,3R,4S,5S)-4-methoxy-5-methyl-2-[(E)-1-nonenyl]tetra-hydro-2H-pyran-3-ylglycinate trifluoroacetic acid salt [Example 24]	–	–	–	–	–	–	–	–	–	–	–	–	–	–	–	–	Antifungal activity MIC (Aspergillus fumigatus; Aspergillus fumigatus CF1003): 50 µg/mL; Antifungal activity MIC (Aspergillus fumigatus; Aspergillus fumigatus CF1004): 25 µg/mL; Antifungal activity MIC (Aspergillus fumigatus; Aspergillus fumigatus CF1023): 50 µg/mL; Antifungal activity MIC (Candida albicans [2]; Candida albicans CY1002): 50 µg/mL; Antifungal activity MIC (Candida albicans [2]; Candida albicans CY1005): 100 µg/mL; Antifungal activity MIC (Candida albicans [2]; Candida albicans CY3003): 50 µg/mL; Antifungal activity MIC (Cryptococcus neoformans; Cryptococcus neoformans CY1057): 25 µg/mL; Antifungal activity MIC (Cryptococcus neoformans; Cryptococcus neoformans CY1059): 25 µg/mL; Antifungal activity MIC (Cryptococcus neoformans; Cryptococcus neoformans CY1061): 50 µg/mL

The next lines start with results.

MIC (Aspergillus fumigatus; [8]) [µg/mL]	MIC (Aspergillus fumigatus; [9]) [µg/mL]	MIC (Aspergillus fumigatus; [10]) [µg/mL]	MIC (Candida albicans [2]; [11]) [µg/mL]	MIC (Candida albicans [2]; [12]) [µg/mL]	MIC (Candida albicans [2]; [13]) [µg/mL]	MIC (Cryptococcus neoformans; [14]) [µg/mL]	MIC (Cryptococcus neoformans; [15]) [µg/mL]	MIC (Cryptococcus neoformans; [16]) [µg/mL]	Molecule	IC80 (A. fumigatus; A. fumigatus CF1003) [µg/mL]	IC80 (A. fumigatus; A. fumigatus CF1004) [µg/mL]	IC80 (C. neoformans; [3]) [µg/mL]	IC80 (C. neoformans; [4]) [µg/mL]	IC80 (Candida albicans [1]; [5]) [µg/mL]	IC80 (Candida albicans [1]; [6]) [µg/mL]	IC80 (Candida albicans [1]; [7]) [µg/mL]	also measured
50	50	50	25	25	50	12.5	12.5	12.5	CCCCCCCCC[C@@H]1OC[C@H](C)[C@H](OCCC)[C@H]1OC(=O)CN [Example 23, 2S,3R,4S,5S)-5-methyl-2-nonyl-4-propoxytetrahydro-2-H-pyran-3-yl glycinate trifluoroacetic acid salt]	–	–	–	–	–	–	–	–
12.5	12.5	6.25	100	100	100	12.5	12.5	25	CCCCCCCC/C=C/[C@@H]1OC[C@H](C)[C@H](OC)[C@H]1OC(=O)CN.O=C(O)C(F)(F)F [Example 6, (2S,3R,4S,5S)-2-[(E)-1-decenyl]-4-methoxy-5-methyltetrahydro-2H-pyran-3-yl glycinate trifluoroacetic acid salt]	–	–	–	–	–	–	–	–
50	100	50	100	100	50	6.25	12.5	12.5	CCCCCCC/C=C\[C@@H]1OC[C@H](C)[C@H](OCC)[C@@H]1OC(=O)CN.O=C(O)C(F)(F)F [Example 27, (2S,3R,4S,5S)-4-ethoxy-5-methyl-2-[(Z)-1-nonenyl]tetrahydro-2H-pyran-3-yl glycinate trifluoroacetic acid salt]	–	–	–	–	–	–	–	–
100	200	100	100	100	100	1.56	3.13	6.25	CCCCCCC/C=C\[C@@H]1OC[C@H](C)[C@H](OC)[C@H]1OC(=O)CN [Example 1, (2S,3R,4S,5S)-4-methoxy-5-methyl-2-[(Z)-1-nonenyl]tetrahydro-2H-pyran-3-ylglycinate trifluoro acetic acid salt]	–	–	–	–	–	–	–	–
